Reference: publication PMC8119466, “A screen of FDA-approved drugs identifies inhibitors of protein tyrosine phosphatase 4A3 (PTP4A3 or PRL-3)” (Scientific Reports, 2021)
Where a name gives a salt, the structure may show the parent alone.

Legend:
Format in all cases: biochemical
recombinant PRL-3 = molecular target: T1, recombinant PRL-3 (Homo sapiens, UniProt O75365); assay: In vitro phosphatase assay (DiFMUP hydrolysis), PRL-3; conditions: for % Phosphatase Activity (compared to DMSO) PRL-3: FDA-approved drug screen
T1 construct: 6xHis (N, cleaved yes); made in house; host or cells: E. coli One Shot BL21 Star

recombinant PRL-2 = molecular target: T2, recombinant PRL-2 (Homo sapiens, UniProt Q12974); assay: In vitro phosphatase assay (DiFMUP hydrolysis), PRL-2; conditions: for % Phosphatase Activity (compared to DMSO) PRL-2: FDA-approved drug screen;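 as to all read-outs here: PRL-2 activity read as DiFMUP hydrolysis after 20 min at room temperature with drug, enzyme first pre-reduced at 4 °C for 20 min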
T2 construct: 6xHis (N, cleaved yes); made in house; host or cells: E. coli One Shot BL21 Star
T2 sequence (Q12974 1-167): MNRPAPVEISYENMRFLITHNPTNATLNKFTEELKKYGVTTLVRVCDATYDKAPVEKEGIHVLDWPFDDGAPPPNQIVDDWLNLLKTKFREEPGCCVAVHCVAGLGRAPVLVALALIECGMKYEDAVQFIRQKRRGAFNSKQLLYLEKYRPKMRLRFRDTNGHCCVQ

recombinant PRL-1 = molecular target: T3, recombinant PRL-1 (Homo sapiens, UniProt Q93096); assay: In vitro phosphatase assay (DiFMUP hydrolysis), PRL-1; conditions: for % Phosphatase Activity (compared to DMSO) PRL-1: FDA-approved drug screen
T3 construct: 6xHis (N, cleaved yes); made in house; host or cells: E. coli One Shot BL21 Star
T3 sequence (Q93096 1-173): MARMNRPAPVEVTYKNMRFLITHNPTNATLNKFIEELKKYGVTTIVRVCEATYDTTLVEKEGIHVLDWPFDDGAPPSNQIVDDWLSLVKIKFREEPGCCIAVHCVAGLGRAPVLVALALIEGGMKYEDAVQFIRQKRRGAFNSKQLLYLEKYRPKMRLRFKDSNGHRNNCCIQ

T1 sequence (O75365 whole entry): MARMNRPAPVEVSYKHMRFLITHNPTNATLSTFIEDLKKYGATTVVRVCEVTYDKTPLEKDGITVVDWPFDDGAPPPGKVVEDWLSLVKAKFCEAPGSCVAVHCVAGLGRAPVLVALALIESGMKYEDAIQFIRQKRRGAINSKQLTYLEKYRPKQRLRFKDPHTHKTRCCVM

Structure (SMILES) | % Phosphatase Activity (compared to DMSO) PRL-3 (recombinant PRL-3) [%] | % Phosphatase Activity (compared to DMSO) PRL-2 (recombinant PRL-2) [%] | % Phosphatase Activity (compared to DMSO) PRL-1 (recombinant PRL-1) [%] | IC50 (recombinant PRL-3; 2.5 µM protein, DiFMUP at KM, read-out: Calculated IC50, PRL-3 phosphatase activity) [µM] | IC50 (recombinant PRL-2; 2.5 µM protein, DiFMUP at KM, read-out: Calculated IC50, PRL-2 phosphatase activity) [µM] | IC50 (recombinant PRL-1; 2.5 µM protein, DiFMUP at KM, read-out: Calculated IC50, PRL-1 phosphatase activity) [µM]
O=C(O)CCCC[C@@H]1SC[C@@H]2NC(=O)N[C@@H]21 [Biotin (Vitamin B7)] | 86 | 101 | 104 | – | – | –
CC[C@H](NC(=O)[C@H](C)NC)C(=O)N1C[C@@H](O)C[C@H]1Cc1c(-c2[nH]c3cc(F)ccc3c2C[C@@H]2C[C@H](O)CN2C(=O)[C@H](CC)NC(=O)[C@H](C)NC)[nH]c2cc(F)ccc12 [Birinapant] | 138 | 129 | 138 | – | – | –
CC(=O)Oc1ccc(C(c2ccc(OC(C)=O)cc2)c2ccccn2)cc1 [Bisacodyl] | 66 | 104 | 88 | – | – | –
CC(C)NCC(O)COc1ccc(COCCOC(C)C)cc1 (stereo not drawn) [Bisoprolol fumarate] | 89 | 124 | 104 | – | – | –
Oc1c(Cl)cc(Cl)cc1Sc1cc(Cl)cc(Cl)c1O [Bithionol, reference compound] | 6 | 80 | 52 | 33 ± 2 | 115 ± 34 | 79 ± 25
C[C@H](Oc1ccc(S(C)(=O)=O)cc1C(=O)N1CCN(c2ncc(C(F)(F)F)cc2F)CC1)C(F)(F)F [Bitopertin] | 82 | 73 | 93 | – | – | –
CC(C)C[C@H](NC(=O)[C@H](Cc1ccccc1)NC(=O)c1cnccn1)B(O)O [Bortezomib (PS-341)] | 93 | 121 | 104 | – | – | –
COc1ccccc1Oc1c(NS(=O)(=O)c2ccc(C(C)(C)C)cc2)nc(-c2ncccn2)nc1OCCO [Bosentan Hydrate] | 93 | 96 | 87 | – | – | –
COc1ccccc1Oc1c(NS(=O)(=O)c2ccc(C(C)(C)C)cc2)nc(-c2ncccn2)nc1OCCO [Bosentan] | 71 | 84 | 83 | – | – | –
O=c1ccc2ccc(OCCCCN3CCN(c4cccc5sccc45)CC3)cc2[nH]1 [Brexpiprazole] | 92 | 115 | 97 | – | – | –
CCN[C@H]1CN(CCCOC)S(=O)(=O)c2sc(S(N)(=O)=O)cc21 [Brinzolamide] | 81 | 110 | 92 | – | – | –
Nc1c(CC(=O)O)cccc1C(=O)c1ccc(Br)cc1 [Bromfenac Sodium] | 75 | 99 | 86 | – | – | –
CN(Cc1cc(Br)cc(Br)c1N)C1CCCCC1 [Bromhexine HCl] | 86 | 122 | 95 | – | – | –
CN(C)CCC(c1ccc(Br)cc1)c1ccccn1.O=C(O)/C=C\C(=O)O (stereo not drawn) [Brompheniramine hydrogen maleate] | 78 | 107 | 108 | – | – | –
O=[N+]([O-])C(Br)(CO)CO [Bronopol] | 86 | 96 | 103 | – | – | –
Oc1c(Br)cc(Br)c2cccnc12 [Broxyquinoline] | 72 | 101 | 94 | – | – | –
CCOc1ccc(NC(=O)CC(C)O)cc1 (stereo not drawn) [Bucetin] | 92 | 108 | 109 | – | – | –

Structure (SMILES) | % Phosphatase Activity (compared to DMSO) PRL-3 (recombinant PRL-3) [%] | % Phosphatase Activity (compared to DMSO) PRL-2 (recombinant PRL-2) [%] | % Phosphatase Activity (compared to DMSO) PRL-1 (recombinant PRL-1) [%] | IC50 (recombinant PRL-3; 2.5 µM protein, DiFMUP at KM, read-out: Calculated IC50, PRL-3 phosphatase activity) [µM] | IC50 (recombinant PRL-2; 2.5 µM protein, DiFMUP at KM, read-out: Calculated IC50, PRL-2 phosphatase activity) [µM] | IC50 (recombinant PRL-1; 2.5 µM protein, DiFMUP at KM, read-out: Calculated IC50, PRL-1 phosphatase activity) [µM]
CCCC1O[C@@H]2C[C@H]3[C@@H]4CCC5=CC(=O)C=C[C@]5(C)[C@H]4[C@@H](O)C[C@]3(C)[C@]2(C(=O)CO)O1 (stereo partly drawn) [Budesonide] | 76 | 100 | 93 | – | – | –
CCCCOc1ccc(CC(=O)NO)cc1 [Bufexamac] | 91 | 110 | 117 | – | – | –
CCCCNc1cc(C(=O)O)cc(S(N)(=O)=O)c1Oc1ccccc1 [Bumetanide] | 98 | 128 | 123 | – | – | –
CCCCN1CCCCC1C(=O)Nc1c(C)cccc1C (stereo not drawn) [Bupivacaine HCl] | 82 | 108 | 108 | – | – | –
O=C1CC2(CCCC2)CC(=O)N1CCCCN1CCN(c2ncccn2)CC1 [Buspirone HCl] | 75 | 91 | 89 | – | – | –
CS(=O)(=O)OCCCCOS(C)(=O)=O [Busulfan] | 79 | 95 | 103 | – | – | –
CCCCOC(=O)c1ccc(N)cc1 [Butamben] | 80 | 94 | 91 | – | – | –
CN(Cc1ccc(C(C)(C)C)cc1)Cc1cccc2ccccc12 [Butenafine HCl] | 88 | 112 | 117 | – | – | –
Clc1ccc(CCC(Cn2ccnc2)Sc2c(Cl)cccc2Cl)cc1 (stereo not drawn) [Butoconazole nitrate] | 98 | 109 | 97 | – | – | –
CCCCOC(=O)c1ccc(O)cc1 [Butylparaben] | 80 | 94 | 91 | – | – | –
CC[C@H](Nc1ncnc2[nH]cnc12)c1nc2cccc(F)c2c(=O)n1-c1ccccc1 [CAL-101 (Idelalisib, GS-1101)] | 77 | 104 | 102 | – | – | –
NC(=O)c1cc(N2CC2)c([N+](=O)[O-])cc1[N+](=O)[O-] [CB1954] | 105 | 74 | 100 | – | – | –
CC(C)C[C@H](NC(=O)[C@@H](NC(=O)c1cccc(-c2ccccc2)n1)[C@@H](C)O)B(O)O [CEP-18770 (Delanzomib)] | 82 | 98 | 103 | – | – | –
C=CC(=O)Nc1cccc(Nc2nc(Nc3ccc(N4CCN(C(C)=O)CC4)cc3OC)ncc2C(F)(F)F)c1 [CO-1686 (AVL-301)] | 98 | 82 | 93 | – | – | –
C#Cc1cccc(Nc2ncnc3cc(OC)c(OCCCCCCC(=O)NO)cc23)c1 [CUDC-101] | 79 | 87 | 94 | – | – | –
O=C(O)c1ccc2c(c1)nc(Nc1cccc(Cl)c1)c1ccncc12 [CX-4945 (Silmitasertib)] | 86 | 81 | 85 | – | – | –
